# Laboratory results as given in patent US20230277508A1, “USE OF COMPOUND AS CYP2E1 INHIBITOR” (SHANGHAI LING XI BIOTECHNOLOGY DEVELOPMENT CO., LTD., priority 2020, published 2023).
# Tests used:
# other CYP enzymes = experiment: Determination of selectivity of a CYP2E1 inhibitor: other CYP enzymes; format: biochemical; details: mixed human liver microsome, probe substrates
# Excerpt: With a mixed liver microsome of a healthy individual as a research object, probe drugs CYP1A2, CYP2A6, CYP2B6, CYP2C8, CYP2C9, CYP2C19, CYP2D6, CYP2E1, and CYP3A4 were selected to determine an in vitro inhibitory effect of an inhibitor to be tested on the metabolism of the probe drugs CYP1A2, CYP2A6, CYP2B6, CYP2C8, CYP2C9, CYP2C19, CYP2D6, CYP2E1, and CYP3A4 for the mixed liver microsome of the healthy human, and the selectivity of the inhibitor to be tested for a CYP2E1 inhibitory effect was evaluated.
# The CYP1A2 probe is 6.25 μM to 800 μM phenacetin or 27.5 μM to 12,520 μM caffeine; • the CYP2A6 probe is 0.156 μM to 20 μM coumarin or 12.5 μM to 2,000 μM nicotine; • the CYP2B6 probe is 7.8 μM to 500 μM bupropion or 0.25 mM to 30 mM cyclophosphamide; • the CYP2C8 probe is 2.5 μM to 80 μM paclitaxel or 0.125 μM to 128 μM amodiaquine; • the CYP2C9 probe is 31.25 μM to 2,000 μM tolbutamide or 0.1 μM to 200 μM diclofenac; • the CYP2C19 probe is 3.9 μM to 500 μM omeprazole or 1.95 μM to 1,000 μM mephenytoin; • the CYP2D6 probe is 0.625 μM to 96 μM dextromethorphan or 0.0195 μM to 80 μM propafenone; and • the CYP3A4 probe is 0.39 μM to 50 μM midazolam or 1.98 μM to 1,000 μM testosterone.
# An incubation system in a total volume of 100 μL was adopted, including a substrate, an inhibitor of different concentrations, a liver microsomal protein, and PBS. […]
# [1] = tested on: CT26 cell lung metastasis; experiment: Lung metastasis model, tail vein injection of CRC cell CT26; format: in vivo, Balb/C mouse; details: SMI0 30 mg/kg, 14 days
# [2] = tested on: B16-F10 cell lung metastasis; experiment: Lung metastasis model, tail vein injection of melanoma cell B16-F10; format: in vivo, C57BL/6 mouse; details: SMI0 30 mg/kg, 14 days
# Protocol: Experimental method: A female C57BL/6 mouse lung metastasis model was constructed through tail vein injection of a melanoma cell B16-F10, with a cell amount of 8*10^5. Mice were divided into a control group, a model group, and an SMI0 intervention group, and the modeling took 14 days (control group, n=5; model group, n=5; and SMI0 (30 mg/kg), n=4). At the end of the experiment, a body weight of mice in each group was recorded, blood was collected from the orbit, the mice were sacrificed, and lung tissues were collected and weighed. The lung tissues were fixed in a formalin solution for 24 h, and a number of lung nodules of mice in each group was recorded.
# [3] = tested on: HepG2 liver cancer cells / macrophage RAW264.7; experiment: HepG2 cells co-cultivated with RAW264.7 macrophage supernatant; format: cell-based; details: SMI0 intervention groups (especially 4 μmol/L) vs macrophage co-cultivation group, P<0.001
# Protocol: Experimental method: A supernatant of a murine macrophage RAW264.7 was collected to establish a co-cultivation system with the HepG2 liver cancer cell, thereby simulating a macrophage inflammatory microenvironment of liver cancer. In the SMI0 intervention groups, SMI0 was added at different concentrations (0 μmol/L, 0.16 μmol/L, 0.8 μmol/L, 4 μmol/L, 20 μmol/L, and 100 μmol/L) while interleukin was added for induction. Culture supernatants of the SMI0 intervention groups were collected to prepare conditional media. HepG2 liver cancer cells in a logarithmic growth phase were adopted. The proliferation activity of HepG2 was determined by a CCK8 method, a migration ability of HepG2 was determined by wound-healing assay, and an apoptosis ability of HepG2 was determined by FCM.
# GL261 cells = experiment: Direct effect on GL261 glioma cells in vitro; format: cell-based, murine
# Protocol: Experimental method: GL261 murine glioma cells and U251 human glioma cells in a logarithmic growth phase each were selected and inoculated into a 96-well plate at a concentration of 5*10^5 cells/mL, then 100 μL of a cell suspension was added to each well, and 12 h later, a medium was discarded; 200 μL of a basic medium including SMI0 at different concentrations ([…]) was added to each well, […]; and the cells were further cultivated for 2 h, and an absorbance OD value of each well was determined at 450 nm by a microplate reader. 3 replicates were set for each well, and an average was taken. The proliferation activity was calculated based on the OD value.
# M2 microglial cells = experiment: Inflammatory factor and lipid metabolism gene levels in co-cultivated glial cells (qPCR); format: cell-based, mouse; details: SMI0 50 μmol/L vs M2 microglial cell co-cultivation group
# Protocol: Experimental method: 10 1-2 d newborn C57BL/6 WT mice and 6 CYP2E1^−/− mice were taken, primary microglial cells and astrocytes were collected and inoculated into 6-well plates, and 24 h later, culture supernatants were taken and co-cultivated with glioma cells. Experimental groups: control group; M2 model group; high-concentration, medium-concentration, and low-concentration SMI0 (50 μmol/L, 12.5 μmol/L, and 3.1 μmol/L) groups; and CYP2E1 gene-knockout group. 24 h later, supernatants were discarded; and […] and IL-13 each were added at 20 ng/mL to induce the transformation of microglial cells into the M2 type in the M2 model group and the high-concentration, medium-concentration, and low-concentration SMI0 groups, and different concentrations of SMI0 (50 μmol/L, 12.5 μmol/L, and 3.1 μmol/L) were also added in the intervention groups. The proliferation of glioma cells was determined by a CCK8 method, and an apoptosis proportion was determined by an Annexin V-FITC-PI apoptosis staining kit.
# Experimental method: Astrocytes in the co-cultivation group were collected, RNA was extracted and reverse-transcribed into cDNA, and the changes of inflammatory factor and cholesterol metabolism-associated genes were detected by qPCR.
compound,measurement,setting,value
CC(=O)c1scnc1C [SMI0],inhibitory effect for other CYP enzymes,other CYP enzymes,no significant inhibitory effect
same,lung weight,[1]; vs model group,significantly reduced
same,number of nodules,[1]; vs model group,significantly reduced
same,tumor proliferation inhibition rate,[1]; as high as,66.7%
same,lung weight,[2]; vs model group,significantly reduced
same,number of nodules,[2]; vs model group,significantly reduced
same,tumor proliferation inhibition rate,[2]; as high as,58.3%
same,apoptosis ability of HepG2 liver cancer cells,[3],significantly enhanced
same,migration ability of HepG2 liver cancer cells,[3],significantly weakened
same,proliferation activity of HepG2 liver cancer cells,[3],significantly weakened
same,inhibitory effect on GL261,"GL261 cells; 0 μM to 128 μM, 48 h",no significant inhibitory effect
same,effect on the proliferation of GL261 glioma cells,"GL261 cells; up to 128 μmol/L or 200 μmol/L, CCK8",no significant inhibitory effect
same,level of IL-4,M2 microglial cells,significantly reduced
same,level of IL-10,M2 microglial cells,significantly reduced
same,level of IL-13,M2 microglial cells,significantly reduced
same,level of the lipid metabolism-associated gene PPAR-α,M2 microglial cells,significantly increased
